Like-named read-outs stand apart in the source and are kept apart here.
Columns and labels:
Format in all cases: physicochemical
[1] = Water solubility of the solvents; settings: for Wasserlöslichkeit der Lösungsmittel (%): Säureamide of Tabelle 4; for H2O-Löslichkeit des Lösungsmittels (%) Gew.-% Lösungs-mittel in Wasser: Tabelle 1 solvents
Excerpt: (§1) Beispiele von Säureamiden sind in der Tabelle 4 zusammengefaßt. Bestimmt wurden die Löslichkeiten der Substanzen 1 (Chloridazon) und 2 (Biscarbamat) wie sie in Tabelle 1 aufgeführt sind, sowie die Wasserlöslichkeit der Lösungsmittel.

[2] = Phenmedipham degradation in formulations at various temperatures
Excerpt: Es wurde der Abbau des Phenmedipham bei verschiedenen Temperaturen verfolgt.

[3] = Stability of Phenmedipham in solvents, 24 h storage, HPLC; settings: 24 Std., read-out: Restwirkstoff an Phenmedipham Wirkstoffgehalt
Procedure: In der folgenden Tabelle sind die Stabilitätsuntersuchungen von Phenmedipham bei verschiedenenen Temperaturen und konstanter Zeit zusammengefaßt. Es wurden 500 mg technischer Wirkstoff in 25 ml Lösungsmittel gelöst, die Lösungen bei der entsprechend gewählten Temperatur 24 Stunden gelagert und der Restwirkstoffgehalt analytisch mit Hilfe der HPLC-Methode bestimmt.

[4] = Active ingredient stability in solvents (0,002 molar, HPLC); settings: for remaining at 5 min, 2000 µM: Abbauzeit 5 min; for remaining at 20 min, 2000 µM: Abbauzeit 20 min; for remaining at 1 h, 2000 µM: Abbauzeit 60 min; for remaining at 7 min, 2000 µM: Abbauzeit 7 min; for remaining at 0.5 h, 2000 µM: Abbauzeit 30 min
Excerpt: In der Tabelle 2 wird die Wirkstoffstabilität der oben genannten Substanz 2 in verschiedenen Lösungsmitteln als Beispiel aufgeführt. […] Die Konzentration an Wirkstoff war bei diesen Untersuchungen 0,002 molar. Die Analyse wurde mit Hilfe der Hochdruckflüssigkeitschromatographie (HPLC) durchgeführt.

[5] = Solubility of Substanz 1 and Substanz 2 in solvents at room temperature
Excerpt: as §1

[6] = dimethylformamid (technisch), Dimethylformid (technisch), 50°C, read-out: Wirkstoffgehalt
[7] = dimethylformamid (technisch), Dimethylformid (technisch), 70°C, read-out: Wirkstoffgehalt
[8] = n-methylpyrrolidon, N-Methylpyrrolidon (rein 0,05% H2O), 50°C, read-out: Wirkstoffgehalt
[9] = n-methylpyrrolidone, N-Methylpyrrolidon (rein 0,05% H2O), 30°C, read-out: Wirkstoffgehalt

In the case of CCCN(CCC)C(=O)c1ccccc1 [compound 12], the “Wasserlöslichkeit der Lösungsmittel (%)” value [1] is reported as 0,5%.
In the case of CCCC(=O)N(CCC)CCC [compound 7], the “Wasserlöslichkeit der Lösungsmittel (%)” value [1] is reported as 1,5%.
In the case of CC1=CC(=O)CC(C)(C)C1 [Isophoron, reference compound], the “H2O-Löslichkeit des Lösungsmittels (%) Gew.-% Lösungs-mittel in Wasser” value [1] is reported as 1,2%.
With CCN(CC)C(=O)c1ccccc1 [compound 10] the “Wasserlöslichkeit der Lösungsmittel (%)” value [1] was 3,7%.
With O=C1CCCCC1 [Cyclohexanon, reference compound] the “H2O-Löslichkeit des Lösungsmittels (%) Gew.-% Lösungs-mittel in Wasser” value [1] was 3-4%.
For COC(=O)Nc1cccc(OC(=O)Nc2cccc(C)c2)c1 [Phenmedipham, 3-Methoxycarbonylaminophenyl-N-(3'-methyl-phenyl)-carbamat], the “Phenmedipham-Abbau Wirkstoffgehalt” value ([2]; formulation (g/l): 50 Phenmedipham, 150 Chloridazon, 200 Netzmittel, 50 Emulgiermittel, ad 1000 g Dimethylformamid, 50°C, 4 Wochen, 40320 min) was 4,8%, the “Phenmedipham-Abbau Wirkstoffgehalt” value ([2]; formulation (g/l): 50 Phenmedipham, 150 Chloridazon, 200 Netzmittel, 50 Emulgiermittel, ad 1000 g Dimethylformamid, Rt, 4 Wochen, 40320 min) was 79,5% and the “Phenmedipham-Abbau Wirkstoffgehalt” value ([2]; formulation (g/l): 167 Chloridazon, 83 Phenmedipham, 300 N-Methylpyrrolidon, 24 Morpholin, 100 Emulgiermittel, 326 Cyclohexanon-Destillationsrückstände (DE-PS 16 42 216, Beispiel 6/I), 50°C, 1 Stunde) was 30,8%. The “Phenmedipham-Abbau Wirkstoffgehalt” value ([2]; formulation with N-Methylpyrrolidon and Morpholin (DE-PS 16 42 216, Beispiel 6/I), 50°C, 2 Stunden) was 16,4%, the “Phenmedipham-Abbau Wirkstoffgehalt” value ([2]; formulation with N-Methylpyrrolidon and Morpholin (DE-PS 16 42 216, Beispiel 6/I), 50°C, 3 Stunden) was 12,8% and the “Phenmedipham-Abbau Wirkstoffgehalt” value ([2]; formulation with N-Methylpyrrolidon and Morpholin (DE-PS 16 42 216, Beispiel 6/I), 70°C, 1 Stunde) was 3,21%. For the same molecule, the Wirkstoffgehalt ([2]; formulation with mixture of Dimethylformamid and Isophoron instead of Dimethylformamid alone, 4 Wochen, 50° C, 40320 min) was “ca. 60%”, the remaining at 24 h ([3]; 2-äthylhexancarbonsäureamid, 2-Äthylhexancarbonsäureamid (Nr. 9 aus Tabelle 4), 50°C) was 98.1% and the remaining at 24 h ([3]; 2-äthylhexancarbonsäureamid, 2-Äthylhexancarbonsäureamid (Nr. 9 aus Tabelle 4), 70°C) was 98%. It also gave a remaining at 24 h ([3]; dimethylformamid, 50°C) of 9.3%, a remaining at 24 h ([3]; isophoron, 50°C) of 99.3% and a remaining at 24 h ([3]; isophoron, 70°C) of 96.3%. The remaining at 24 h ([3]; n,n-dipropylbuttersäureamid, N,N-Dipropylbuttersäureamid (Nr. 7 aus Tabelle 4), 50°C) was 100%, the remaining at 24 h ([3]; n,n-dipropylbuttersäureamid, N,N-Dipropylbuttersäureamid (Nr. 7 aus Tabelle 4), 70°C) was 97.6% and the remaining at 24 h ([3]; n,n-diäthyl-3-methyl-benzolcarbonsäureamid, N,N-Diäthyl-3-methyl-benzolcarbonsäureamid (Nr. 11 Tabelle 4), 50°C) was 95.5%. The remaining at 24 h ([3]; n,n-diäthyl-3-methyl-benzolcarbonsäureamid, N,N-Diäthyl-3-methyl-benzolcarbonsäureamid (Nr. 11 Tabelle 4), 70°C) was 60%.
For CCN(CC)C(=O)c1cccc(C)c1 [compound 11], the “Wasserlöslichkeit der Lösungsmittel (%)” value [1] was 2,2%.
For Nc1cnn(-c2ccccc2)c(=O)c1Cl [Substanz 1, 1-Phenyl-4-amino-5-chlor-pyridazon-(6), reference compound], the Stabilität ([4]; in the solvents of Tabelle 2) was “keine Schwierigkeiten”.
In the case of CCCCC(CC)C(=O)N(C)C (centres unmarked) [compound 9], the “Wasserlöslichkeit der Lösungsmittel (%)” value [1] is reported as 1,5%.
For CCOC(=O)Nc1cccc(OC(=O)Nc2ccc(F)c(Cl)c2)c1 [Substanz 2, (3-Chlor-4-fluorphenyl)carbaminsäure-3(ethoxy-carbonyl)amino-phenylester], the remaining at 5 min, 2000 µM [4, 6] was 99.5%, the remaining at 20 min, 2000 µM [4, 6] was 98.1% and the remaining at 1 h, 2000 µM [4, 6] was 95.5%. For the same molecule, the remaining at 7 min, 2000 µM [4, 7] was 98.5%, the remaining at 0.5 h, 2000 µM [4, 7] was 87.2% and the remaining at 1.05 h, 2000 µM ([4]; dimethylformamid (technisch), Dimethylformid (technisch), 70°C, Abbauzeit 63 min, read-out: Wirkstoffgehalt) was 57.4%. For the same molecule, the remaining at 7 min, 2000 µM ([4]; dimethylformamid (technisch), Dimethylformid (technisch), 80°C, read-out: Wirkstoffgehalt) was 85.4%, the remaining at 23 min, 2000 µM ([4]; dimethylformamid (technisch), Dimethylformid (technisch), 80°C, Abbauzeit 23 min, read-out: Wirkstoffgehalt) was 54.7% and the remaining at 37 min, 2000 µM ([4]; dimethylformamid (technisch), Dimethylformid (technisch), 80°C, Abbauzeit 37 min, read-out: Wirkstoffgehalt) was 32.9%. The remaining at 24 h, 2000 µM ([4]; isophoron, 80°C, Abbauzeit 24 Std., read-out: Wirkstoffgehalt) was 93%, the remaining at 5 min, 2000 µM [4, 8] was 92.3% and the remaining at 20 min, 2000 µM [4, 8] was 76.5%. The remaining at 1 h, 2000 µM [4, 8] was 52.8%, the remaining at 5 min, 2000 µM [4, 9] was 100% and the remaining at 0.5 h, 2000 µM [4, 9] was 96.7%. The remaining at 3.5 h, 2000 µM ([4]; n-methylpyrrolidone, N-Methylpyrrolidon (rein 0,05% H2O), 30°C, Abbauzeit 210 min, read-out: Wirkstoffgehalt) was 76.3%, the “Löslichkeit in % (g Substanz in 100 g Lösung bei Raumtemperatur (RT 20°C))” value (“Löslichkeit in %” for short) ([5]; in Cyclohexanon) was 35,0% and the “Löslichkeit in %” value ([5]; in Dimethylformamid) was 47,2%. For the same molecule, the “Löslichkeit in %” value ([5]; in Dimethylsulfoxid) was 55,3%, the “Löslichkeit in %” value ([5]; in Isophoron) was 33,7% and the “Löslichkeit in %” value ([5]; in N-Methylpyrrolidon) was 30,8%. The “Löslichkeit in (%)” value ([5]; in Säureamid Nr. 1, Rt) was 39,9%, the “Löslichkeit in (%)” value ([5]; in Säureamid Nr. 2, Rt) was 37,0% and the “Löslichkeit in (%)” value ([5]; in Säureamid Nr. 3, Rt) was 43,8%. For the same molecule, the “Löslichkeit in (%)” value ([5]; in Säureamid Nr. 4, Rt) was 45,4%, the “Löslichkeit in (%)” value ([5]; in Säureamid Nr. 5, Rt) was 41,6% and the “Löslichkeit in (%)” value ([5]; in Säureamid Nr. 6, Rt) was 49,0%. The “Löslichkeit in (%)” value ([5]; in Säureamid Nr. 7, Rt) was 38,8%, the “Löslichkeit in (%)” value ([5]; in Säureamid Nr. 8, Rt) was 45,5% and the “Löslichkeit in (%)” value ([5]; in Säureamid Nr. 9, Rt) was 29,1%. For the same molecule, the “Löslichkeit in (%)” value ([5]; in Säureamid Nr. 10, Rt) was 39,5%, the “Löslichkeit in (%)” value ([5]; in Säureamid Nr. 11, Rt) was 29,4% and the “Löslichkeit in (%)” value ([5]; in Säureamid Nr. 12, Rt) was 33,3%. For the same molecule, the “Löslichkeit in (%)” value ([5]; in Säureamid Nr. 13, Rt) was 31,1%.
For CCCN(CCC)C(=O)C(C)C [compound 8], the “Wasserlöslichkeit der Lösungsmittel (%)” value [1] was 1,6%.
